The data set in a line: Whole blood stability assay. Format: in vitro ADME. To be noted: prodrug 50 nM, fresh pooled human whole blood, 37 degrees C.; read-out: t1/2 at 37 degrees C. in human whole blood. The method, then: Naltrexone prodrug stability was assessed using freshly collected whole blood (within 24-hr collection) from pooled human (n=3) donors. The incubation mixtures were prepared by spiking the prodrugs into pre-warmed (37 degrees C.) fresh whole blood to a final concentration of 50 nM. After gentle mixing, aliquots of incubation mixtures were immediately transferred into four different 96-deep well plates. One plate was used for each time point. The plates were incubated at 37 degrees C. at a shaking speed of 100 rpm. At time points 15, 30, 60 and 120 minutes, the reaction was quenched by addition of a mixture of water and acetonitrile containing the internal standard (naltrexone-D3). Time point 0 minutes was prepared separately by spiking the prodrugs into a quenched whole blood to obtain a final concentration of 50 nM. All samples were vortexed at a low speed for 15 min and centrifuged at 3900 rpm for 15 min. Supernatants were transferred into 96-well plates for LC-MS/MS analysis to monitor the depletion of the prodrugs and the formation of naltrexone.
The amount of remaining prodrug and released naltrexone for each sample was quantitated against the calibration curves prepared with the whole blood. The human whole blood was purchased from BioreclamationIVT (Westbury, N.Y., USA). Naltrexone-D3 was purchased from CERILLIANT® (Round Rock, Tex., USA). […] Where multiple runs have been completed, average values are reported.

In the case of `COc1c(CC(=O)Oc2ccc3c4c2O[C@H]2C(=O)CC[C@@]5(O)[C@@H](C3)N(CC3CC3)CC[C@]425)ccc2c(OC)c(CC(=O)Oc3ccc4c5c3O[C@H]3C(=O)CC[C@@]6(O)[C@@H](C4)N(CC4CC4)CC[C@]536)ccc12` [Compound 4, bis((4R,4aS,7aR,12bS)-3-(cyclopropylmethyl)-4a-hydroxy-7-oxo-2,3,4,4a,5,6,7,7a-octahydro-1H-4,12-methanobenzofuro[3,2-e]isoquinolin-9-yl) 2,2′-(1,5-dimethoxynaphthalene-2,6-diyl)diacetate], the half-life at 50 nM stood at 28.9 min.

On to `O=C(Cc1ccc2c(F)c(CC(=O)Oc3ccc4c5c3O[C@H]3C(=O)CC[C@@]6(O)[C@@H](C4)N(CC4CC4)CC[C@]536)ccc2c1F)Oc1ccc2c3c1O[C@H]1C(=O)CC[C@@]4(O)[C@@H](C2)N(CC2CC2)CC[C@]314` [Compound 5, bis((4R,4aS,7aR,12bS)-3-(cyclopropylmethyl)-4a-hydroxy-7-oxo-2,3,4,4a,5,6,7,7a-octahydro-1H-4,12-methanobenzofuro[3,2-e]isoquinolin-9-yl) 2,2′-(1,5-difluoronaphthalene-2,6-diyl)diacetate], for which the half-life at 50 nM was found to be 20.4 min.

As for `O=C(Cc1ccc2c(Cl)c(CC(=O)Oc3ccc4c5c3O[C@H]3C(=O)CC[C@@]6(O)[C@@H](C4)N(CC4CC4)CC[C@]536)ccc2c1Cl)Oc1ccc2c3c1O[C@H]1C(=O)CC[C@@]4(O)[C@@H](C2)N(CC2CC2)CC[C@]314` [Compound 6, bis((4R,4aS,7aR,12bS)-3-(cyclopropylmethyl)-4a-hydroxy-7-oxo-2,3,4,4a,5,6,7,7a-octahydro-1H-4,12-methanobenzofuro[3,2-e]isoquinolin-9-yl) 2,2′-(1,5-dichloronaphthalene-2,6-diyl)diacetate], the half-life at 50 nM came to 25.7 min.

On to `Cc1c(CC(=O)Oc2ccc3c4c2O[C@H]2C(=O)CC[C@@]5(O)[C@@H](C3)N(CC3CC3)CC[C@]425)ccc2c(C)c(CC(=O)Oc3ccc4c5c3O[C@H]3C(=O)CC[C@@]6(O)[C@@H](C4)N(CC4CC4)CC[C@]536)ccc12` [Compound 7, bis((4R,4aS,7aR,12bS)-3-(cyclopropylmethyl)-4a-hydroxy-7-oxo-2,3,4,4a,5,6,7,7a-octahydro-1H-4,12-methanobenzofuro[3,2-e]isoquinolin-9-yl) 2,2′-(1,5-dimethylnaphthalene-2,6-diyl)diacetate], for which the half-life at 50 nM was 58.6 min.

Take `O=C(CCc1ccc2cc(CCC(=O)Oc3ccc4c5c3O[C@H]3C(=O)CC[C@@]6(O)[C@@H](C4)N(CC4CC4)CC[C@]536)ccc2c1)Oc1ccc2c3c1O[C@H]1C(=O)CC[C@@]4(O)[C@@H](C2)N(CC2CC2)CC[C@]314` [Compound 8, bis((4R,4aS,7aR,12bS)-3-(cyclopropylmethyl)-4a-hydroxy-7-oxo-2,3,4,4a,5,6,7,7a-octahydro-1H-4,12-methanobenzofuro[3,2-e]isoquinolin-9-yl) 3,3′-(naphthalene-2,6-diyl)dipropionate]: the half-life at 50 nM was 26.3 min.

Consider `O=C(Cc1cccc2cccc(CC(=O)Oc3ccc4c5c3O[C@H]3C(=O)CC[C@@]6(O)[C@@H](C4)N(CC4CC4)CC[C@]536)c12)Oc1ccc2c3c1O[C@H]1C(=O)CC[C@@]4(O)[C@@H](C2)N(CC2CC2)CC[C@]314` [Compound 9, bis((4R,4aS,7aR,12bS)-3-(cyclopropylmethyl)-4a-hydroxy-7-oxo-2,3,4,4a,5,6,7,7a-octahydro-1H-4,12-methanobenzofuro[3,2-e]isoquinolin-9-yl) 2,2′-(naphthalene-1,8-diyl)diacetate], for which the half-life at 50 nM stood at 40.9 min.

With `O=C(Cc1ccc2ccc(CC(=O)Oc3ccc4c5c3O[C@H]3C(=O)CC[C@@]6(O)[C@@H](C4)N(CC4CC4)CC[C@]536)cc2c1)Oc1ccc2c3c1O[C@H]1C(=O)CC[C@@]4(O)[C@@H](C2)N(CC2CC2)CC[C@]314` [Compound 10, bis((4R,4aS,7aR,12bS)-3-(cyclopropylmethyl)-4a-hydroxy-7-oxo-2,3,4,4a,5,6,7,7a-octahydro-1H-4,12-methanobenzofuro[3,2-e]isoquinolin-9-yl) 2,2′-(naphthalene-2,7-diyl)diacetate], the half-life at 50 nM was 14.7 min.

As to `O=C(Oc1ccc2c3c1O[C@H]1C(=O)CC[C@@]4(O)[C@@H](C2)N(CC2CC2)CC[C@]314)c1ccc(C(=O)Oc2ccc3c4c2O[C@H]2C(=O)CC[C@@]5(O)[C@@H](C3)N(CC3CC3)CC[C@]425)cc1` [Reference Compound A, NTX-3-terephthaloyl-NTX, reference compound], the half-life at 50 nM amounted to 54.7 min.

(Values after patent US10799496B2, “Naphthylenyl compounds for long-acting injectable compositions and related methods” (priority 2018, dated 2020).)
